Results published in patent US20250295795A1, “PEPTIDE” (priority 2021, published 2025).
“Also recorded” adds a separate entry of the source.

Assays:
[1] = system: HeLa cells; experiment: Co-delivery of antibodies, antibody fragments and RFP into live Hela cells; assay type: cell-based, human
Description: Access to the cytosol by mechanisms that are independent of transmembrane pore formation constitutes a preferred method of co-delivery due to reduced toxicity to the cell. […] Successful delivery of Fab is indicated by homogenous distribution of AF647 signal in the cytosol and nucleus and is only observed in cells which have been transduced with tri-cTat B (FIG. 13). Time course of Fab uptake by tri-cTat B (FIG. 5c) follows a similar pattern as tri-cTat B alone (FIG. 3b, d). Tri-cTat B and Fab form large vesicle-like bodies that appear to release their contents into the cytosol of the cell; unambiguous cytosolic staining by Fab is observed from 23 min. Interaction between peptide trimer and biomacromolecule, mediated by charge-charge interactions is essential for the accumulation of both in endosomes and subsequent release and delivery of cargo into cells. Delivery of relatively β-sheet rich, neutrally charged recombinant RFP was unsuccessful (FIG. 16) due to a lack of association between tri-cTat B and cargo (FIG. 17). On the other hand, interaction diminishes the efficacy of the peptide trimer due to charge masking, emphasising the need to maintain an appropriate peptide to cargo ratio for a given macromolecule. Experiments to explore the efficacy of tri-cTat B in the presence of serum supplemented medium underline this principle; while tri-cTat B continues to function in the presence of serum, the number of transduced cells diminishes (42% (serum) vs. 61% (serum free)), but can be restored by increasing tri-cTat B concentration to 2 μM (79% (serum); FIG. 15). […] This is likely due to the larger size of antibodies and also to the observation that antibodies have a greater tendency to aggregate in the presence of tri-cTat B compared to Fab fragments. […] Finally, we investigated whether it is possible to deliver functional antibodies and antibody fragments into the cytosol and nuclei of cells. β-actin was chosen as a proof-of-principle protein because of its abundance in the cell and formation of distinctive subcellular filaments. To clearly identify actin filaments, Hela cells were transfected with red fluorescent protein fused to actin (actin-RFP) before being incubated with β-actin antibody (mouse IgG2b) or β-actin Fab fragment (mouse) conjugated to AF647 plus tri-cTat B for 30 min. After washing, cells were left for 60 min to allow IgG/Fab to bind to actin filaments. […] To enable objective quantification of co-localization between β-actin filaments and IgG/Fab fragment (white arrows), a co-localization threshold algorithm was used in selected regions of interest (ROI). Pearson's and Manders' coefficients were obtained under Costes' automatic threshold^32 and the co-localized pixels are shown as a mask of yellow pixels of constant intensity (co-localization panels). The significance of the co-localization parameters (Pearson's and Manders' coefficients) was evaluated using the confined displacement algorithm (CDA).
HeLa and CHO cells were cultured in DMEM supplemented with 10% FBS and penicillin/streptomycin. For post-wash experiments, Tat conjugate was added to the cells in serum free medium, cells incubated at 37° C. in an atmosphere of 5% CO2, culture medium removed at the desired time point, cells washed and transferred to the microscope for imaging. For time course or pre-wash experiments, cells were transferred to the microscope (incubation chamber at 37° C., 5% CO2) and Tat conjugate added directly to cell medium and cells imaged at desired time points. Co-delivery experiments were conducted by adding peptide trimer immediately followed by cargo into serum free medium. Samples were visualised using a Zeiss LSM 780 inverted confocal microscope fitted with a XLmultiS1 incubation chamber and Plan-Apochromat 63×/1.40 Oil DIC M27 objective. Images were analysed using ImageJ software. Digital adjustments and image processing are consistent throughout the manuscript, unless otherwise stated in the figure legend. […]

[2] = system: CHO cells; experiment: Live cell confocal microscopy: cellular uptake and intracellular distribution of Tat conjugates in CHO cells; assay type: cell-based, Chinese hamster; details: 1 μM, 60 min, serum-free DMEM, post-wash
Method: The cellular uptake and intracellular distribution of Tat-trimers and monomeric controls was investigated by performing live cell confocal microscopy of HeLa (human, cervical cancer) and CHO (Chinese hamster, epithelial) cells incubated with Tat conjugates (1 μM) in serum-free DMEM (60 min). Following washing, images were acquired using a Zeiss 780 confocal microscope fitted with an incubation chamber (FIG. 2). In accordance with observations that free Tat in the cytosol readily enters the nucleus and strongly binds to nucleoli,^29 homogenous staining of cytoplasm and nucleoli were considered as indicative of cells having accumulated free conjugate, not confined to endosomes, for quantification purposes. […] The uptake and intracellular distribution of tri-Tat A is similar in live Hela and CHO cells (FIG. 2b,d,e).
HeLa and CHO cells were cultured in DMEM supplemented with 10% FBS and penicillin/streptomycin. For post-wash experiments, Tat conjugate was added to the cells in serum free medium, cells incubated at 37° C. in an atmosphere of 5% CO2, culture medium removed at the desired time point, cells washed and transferred to the microscope for imaging. For time course or pre-wash experiments, cells were transferred to the microscope (incubation chamber at 37° C., 5% CO2) and Tat conjugate added directly to cell medium and cells imaged at desired time points. Co-delivery experiments were conducted by adding peptide trimer immediately followed by cargo into serum free medium. Samples were visualised using a Zeiss LSM 780 inverted confocal microscope fitted with a XLmultiS1 incubation chamber and Plan-Apochromat 63×/1.40 Oil DIC M27 objective. Images were analysed using ImageJ software. Digital adjustments and image processing are consistent throughout the manuscript, unless otherwise stated in the figure legend. Statistical analysis was carried out using GraphPad Prism 7 software and all data used for statistical analysis consists of measurements from distinct cells. Where applicable a parametric, unpaired, two-tailed t-test was used for statistical testing.

[3] = MTT assay of metabolic activity (cell viability); assay type: cell-based; details: human, HeLa cells, 1 μM for 60 min
Method: Toxicity is a concern with potent intracellular delivery agents. We used an MTT assay to measure the metabolic activity of Hela cells treated with 1 μM tri-Tat A or tri-cTat B for 60 min (FIG. 4d). […] Tri-Tat A is slightly more toxic, which is consistent with the observation that the trimer forms membrane pores (cells 84.4% viable, 4 h post-treatment; 80.2% viable, 3 days post-treatment). The favourable uptake mechanism and low toxicity of tri-cTat B lead us to investigate this agent for its potential to transport biomacromolecular cargos into cells.

[4] = system: HeLa cells; experiment: Membrane integrity / porosity: propidium iodide uptake after trimer treatment; assay type: cell-based, human; details: 1 μM trimer; 40 μM PI added 20 min after trimer
Method: To assess membrane integrity, 40 μM propidium iodide (PI; a cell impermeable dye), was added to Hela cells 20 min after the addition of the peptide trimer.

N=C(N)NCCC[C@@H]1NC(=O)[C@H](CCCNC(=N)N)NC(=O)[C@H](CCCNC(=N)N)NC(=O)[C@H](CCC(N)=O)NC(=O)[C@H](CCCNC(=N)N)NC(=O)[C@H](CCCNC(=N)N)NC(=O)[C@H](CCCCN)NC(=O)[C@H](CCCCN)NC(=O)[C@H](CCCNC(=N)N)NC(=O)[C@H](CCCCn2cc(COCC(COCc3cn(CCCCCCNC(=O)c4ccc5c(c4)C(=O)OC54c5ccc(N)c(S(=O)(=O)O)c5Oc5c4ccc(N)c5S(=O)(=O)O)nn3)(COCc3cn(CCCC[C@@H]4NC(=O)CC[C@@H](C(N)=O)NC(=O)[C@H](CCCNC(=N)N)NC(=O)[C@H](CCCNC(=N)N)NC(=O)[C@H](CCCNC(=N)N)NC(=O)[C@H](CCC(N)=O)NC(=O)[C@H](CCCNC(=N)N)NC(=O)[C@H](CCCNC(=N)N)NC(=O)[C@H](CCCCN)NC(=O)[C@H](CCCCN)NC(=O)[C@H](CCCNC(=N)N)NC4=O)nn3)COCc3cn(CCCC[C@@H]4NC(=O)CC[C@@H](C(N)=O)NC(=O)[C@H](CCCNC(=N)N)NC(=O)[C@H](CCCNC(=N)N)NC(=O)[C@H](CCCNC(=N)N)NC(=O)[C@H](CCC(N)=O)NC(=O)[C@H](CCCNC(=N)N)NC(=O)[C@H](CCCNC(=N)N)NC(=O)[C@H](CCCCN)NC(=O)[C@H](CCCCN)NC(=O)[C@H](CCCNC(=N)N)NC4=O)nn3)nn2)NC(=O)CC[C@@H](C(N)=O)NC1=O (some centres unmarked) [tri-cTat B]
cells showing homogenous AF647 staining in cytosol and nucleus (whole IgG co-delivery) ([1]; 166 nM IgG-AF647 + 1 μM trimer, 45 min): approximately 20%
cells with Fab delivered into cytosol and nucleus ([1]; 500 nM AF647-labelled non-specific mouse Fab + 1 μM trimer, 30 min): 50%
time from which unambiguous cytosolic staining by Fab is observed ([1]; 500 nM Fab-AF647 + 1 μM trimer): 23 min
delivery of recombinant RFP ([1]; 1 μM trimer + 1 or 2 μM recombinant RFP, 30 min, serum free): unsuccessful
cellular uptake and intracellular distribution [2]: taken up into the cytosol and nucleoli
viability at 4 h, 1 µM ([3]; 4 h post-treatment): 94.3%
viability at 72 h, 1 µM ([3]; 3 days post-treatment): 96.5%
propidium iodide (PI) uptake / pore formation [4]: does not form pores in the plasma membrane; also recorded: PI negative
